US20240228512A1, “ACYCLIC OXAZEPINE COMPOUNDS COMPRISING A 6-AZA MOIETY AND USES THEREOF” (Genentech, Inc., priority 2022, published 2024)
Like-named read-outs stand apart in the source and are kept apart here.

Experiments:
HPAC cells = assay: HPAC 3D proliferation assay (CellTiter-Glo); assay type: cell-based; conditions: 3D culture, 7 days, read-out: HPAC CTG IC50
Method in brief: (§1)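 Cells were seeded in ultra-low attachment plates (3000 or 1000 cells/well for 96- or 384-well format) in RPMI-1640, 10% FBS, 2 mM L-glutamine and cultured overnight at 37 °C/5% CO2 to form spheroids. Compounds were added by 333-fold dilution from DMSO for 7 days. Viability was read as CellTiter-Glo 3D ATP luminescence, with IC50 from a 4-parameter logistic fit.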

H1975 cells = assay: H1975 CTG proliferation assay; assay type: cell-based
SW620 PERK = SW620 PERK assay; assay type: cell-based
SW620 cells = assay: SW620 3D proliferation assay (CellTiter-Glo); assay type: cell-based; conditions: SW620, 3D culture, 7 days, read-out: SW620 CTG IC50
Method in brief: as §1

[1] = biological target: recombinant human KRAS wild type (SOS1-mediated nucleotide exchange) (Homo sapiens (Human), UniProt P01116); assay: KRAS biochemical assay, BODIPY-GDP exchange TR-FRET (WT-GDP HTRF)
SW480 cells = assay: SW480 CTG proliferation assay; assay type: cell-based; conditions: Homo sapiens
[2] = biological target: recombinant human mutant KRas G12V (SOS1-mediated nucleotide exchange) (Homo sapiens (Human), UniProt P01116, G12V); assay: KRAS biochemical assay, BODIPY-GDP exchange TR-FRET (G12V-GDP HTRF)
[3] = Homo sapiens, NCI-H1975, H1975, CTG
[4] = Homo sapiens, SW-620, SW620, PERK

Chain of recombinant human mutant KRas G12V (SOS1-mediated nucleotide exchange) (P01116-2 other isoform, or with tags, fused parts or gaps G12V): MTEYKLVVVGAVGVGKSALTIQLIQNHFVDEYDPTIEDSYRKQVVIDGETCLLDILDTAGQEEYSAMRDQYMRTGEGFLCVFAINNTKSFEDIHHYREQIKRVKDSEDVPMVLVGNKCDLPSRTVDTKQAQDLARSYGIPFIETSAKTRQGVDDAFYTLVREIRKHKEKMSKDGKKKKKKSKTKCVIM
Chain of recombinant human KRAS wild type (SOS1-mediated nucleotide exchange) (P01116-2 other isoform, or with tags, fused parts or gaps): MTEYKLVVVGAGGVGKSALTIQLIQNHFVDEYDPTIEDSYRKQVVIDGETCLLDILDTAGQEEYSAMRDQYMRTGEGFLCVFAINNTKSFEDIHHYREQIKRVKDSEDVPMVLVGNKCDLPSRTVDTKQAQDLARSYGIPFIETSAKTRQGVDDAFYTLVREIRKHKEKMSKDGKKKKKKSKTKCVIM

Row | Compound | IC50 (H1975 cells; [3]) | IC50 (SW620 PERK; [4]) | IC50 (SW620 cells; Homo sapiens, SW-620, 168 h) | IC50 [1] | IC50 (SW480 cells) | IC50 [2] | IC50 (H1975 cells; H1975, CTG) | IC50 (SW620 PERK; SW620, PERK) | IC50 (SW620 cells) | IC50 (HPAC cells; Homo sapiens, 168 h) | IC50 (HPAC cells)
1 | C#Cc1cccc2cc(O)cc(-c3nc4c5c(nc(OCC67CCN6CC(F)(F)C7)nc5c3F)N([C@H](C)c3cccnc3N)CCO4)c12 (stereo partly drawn) [Example 1, 4-(10-((R)-1-(2-aminopyridin-3-yl)ethyl)-2-((3,3-difluoro-1-azabicyclo[3.2.0]heptan-5-yl)methoxy)-4-fluoro-9,10-dihydro-8H-7-oxa-1,3,6,10-tetraazacyclohepta[de]naphthalen-5-yl)-5-ethynyinaphthalen-2-ol] | 47.4 nM | 1.42 nM | 7 nM |  | 26 nM |  |  |  |  | 144 nM | 
2 | C#Cc1c(F)ccc2cc(O)cc(-c3nc4c5c(nc(OC[C@@]67CCCN6C[C@H](F)C7)nc5c3F)N([C@H](C)c3cccnc3N)CCO4)c12 [Example 2, 4-(10-((R)-1-(2-aminopyridin-3-yl)ethyl)-4-fluoro-2-(((2R,7aS)-2-fluorotetrahydro-1H-pyrrolizin-7a(5H)-yl)methoxy)-9,10-dihydro-8H-7-oxa-1,3,6,10-tetraazacyclohepta[de]naphthalen-5-yl)-5-ethynyl-6-fluoronaphthalen-2-ol] | 2.59 nM | 1.29 nM | 2.41 nM | 0.0671 nM | 2.9 nM | 0.08 nM |  |  |  | 20.8 nM | 
3 | C#Cc1cccc2cc(N)cc(-c3nc4c5c(nc(OC[C@@]67CCCN6C[C@H](F)C7)nc5c3F)N([C@H](C)c3cccnc3N)CCO4)c12 [Example 4, 3-((R)-1-(5-(3-amino-8-ethynyinaphthalen-1-yl)-4-fluoro-2-(((2R,7aS)-2-fluorotetrahydro-1H-pyrrolizin-7a(5H)-yl)methoxy)-8,9-dihydro-10H-7-oxa-1,3,6,10-tetraazacyclohepta[de]naphthalen-10-yl)ethyl)pyridin-2-amine] | 2.59 nM | 1.07 nM | 1.26 nM |  | 2.4 nM |  |  |  |  | 5.72 nM | 
4 | Cc1c(F)c(N)cc(-c2nc3c4c(nc(OC[C@@]56CCCN5C[C@H](F)C6)nc4c2F)N([C@H](C)c2cccnc2N)CCO3)c1C(F)(F)F [Example 5, 3-((R)-1-(5-(5-amino-4-fluoro-3-methyl-2-(trifluoromethyl)phenyl)-4-fluoro-2-(((2R,7aS)-2-fluorotetrahydro-1H-pyrrolizin-7a(5H)-yl)methoxy)-8,9-dihydro-10H-7-oxa-1,3,6,10-tetraazacyclohepta[de]naphthalen-10-yl)ethyl)pyridin-2-amine] | 12.8 nM | 0.72 nM | 1.14 nM | 0.0529 nM | 5.8 nM | 0.045 nM |  |  |  | 5.06 nM | 
5 | Cc1c(F)c(N)c(F)c(-c2nc3c4c(nc(OC[C@@]56CCCN5C[C@H](F)C6)nc4c2F)N([C@H](C)c2cccnc2N)CCO3)c1C(F)(F)F [Example 12, 3-((1R)-1-(5-(3-amino-2,4-difluoro-5-methyl-6-(trifluoromethyl)phenyl)-4-fluoro-2-(((2R,7aS)-2-fluorotetrahydro-1H-pyrrolizin-7a(5H)-yl)methoxy)-8,9-dihydro-10H-7-oxa-1,3,6,10-tetraazacyclohepta[de]naphthalen-10-yl)ethyl)pyridin-2-amine] | 59.4 nM | 1.62 nM | 5.63 nM |  | 2.8 nM |  |  |  |  | 14.7 nM | 
6 | Cc1cc(N)c(F)c(-c2nc3c4c(nc(OC[C@@]56CCCN5C[C@H](F)C6)nc4c2F)N([C@H](C)c2cccnc2N)CCO3)c1C(F)(F)F [Example 15, 3-((1R)-1-(5-(3-amino-2-fluoro-5-methyl-6-(trifluoromethyl)phenyl)-4-fluoro-2-(((2R,7aS)-2-fluorotetrahydro-1H-pyrrolizin-7a(5H)-yl)methoxy)-8,9-dihydro-10H-7-oxa-1,3,6,10-tetraazacyclohepta[de]naphthalen-10-yl)ethyl)pyridin-2-amine] | 2.59 nM | 2.24 nM | 0.74 nM |  | 10 nM |  |  |  |  | 8.84 nM | 
7 | Cc1c(F)c(N)cc(-c2nc3c4c(nc(OC[C@@H]5CC[C@H]6COCCN65)nc4c2F)N([C@H](C)c2cccnc2N)CCO3)c1C(F)(F)F [Example 16, 3-((R)-1-(5-(5-amino-4-fluoro-3-methyl-2-(trifluoromethyl)phenyl)-4-fluoro-2-(((6S,8aS)-hexahydro-1H-pyrrolo[2,1-c][1,4]oxazin-6-yl)methoxy)-8,9-dihydro-10H-7-oxa-1,3,6,10-tetraazacyclohepta[de]naphthalen-10-yl)ethyl)pyridin-2-amine] | 31.1 nM | 2.53 nM | 3.77 nM |  | 10 nM |  |  |  |  | 30.2 nM | 

Continued, in another order:

Row | IC50 (H1975 cells; [3]) | IC50 (SW620 PERK; [4]) | IC50 (SW620 cells; Homo sapiens, SW-620, 168 h) | IC50 [1] | IC50 (SW480 cells) | IC50 [2] | IC50 (H1975 cells; H1975, CTG) | IC50 (SW620 PERK; SW620, PERK) | IC50 (SW620 cells) | Compound | IC50 (HPAC cells; Homo sapiens, 168 h) | IC50 (HPAC cells)
8 | 176 nM | 1.33 nM | 1.71 nM | 0.178 nM | 20 nM | 0.069 nM |  |  |  | Cc1c(F)c(N)c(F)c(-c2nc3c4c(nc(OC[C@@]56CCCN5C[C@H](F)C6)nc4c2Cl)N([C@H](C)c2cccnc2N)CCO3)c1C(F)(F)F (atropisomer, axis not shown; (aS)) [Example 629a, 3-((R)-1-((R)-5-(3-amino-2,4-difluoro-5-methyl-6-(trifluoromethyl)phenyl)-4-chloro-2-(((2R,7aS)-2-fluorotetrahydro-1H-pyrrolizin-7a(5H)-yl)methoxy)-8,9-dihydro-10H-7-oxa-1,3,6,10-tetraazacyclohepta[de]naphthalen-10-yl)ethyl)pyridin-2-amine] | 15.3 nM | 
9 |  |  |  | 0.07 nM | 2.4 nM | 0.05 nM | 2.59 nM | 0.555 nM | 1 nM | Cc1cc(N)c(Cl)c(-c2nc3c4c(nc(OC[C@@]56CCCN5C[C@H](F)C6)nc4c2F)N([C@H](C)c2cccnc2N)CCO3)c1C(F)(F)F (single isomer, unassigned) [Example 21b] |  | 4.43 nM
10 | 9.15 nM | 4.33 nM | 13.7 nM |  | 110 nM |  |  |  |  | C#Cc1cccc2cc(O)cc(-c3nc4c5c(nc(OC[C@@H]6CC[C@H]7COCCN76)nc5c3F)N([C@H](C)c3cccnc3N)CCO4)c12 [Example 17, 4-(10-((R)-1-(2-aminopyridin-3-yl)ethyl)-4-fluoro-2-(((6S,8aS)-hexahydro-1H-pyrrolo[2,1-c][1,4]oxazin-6-yl)methoxy)-9,10-dihydro-8H-7-oxa-1,3,6,10-tetraazacyclohepta[de]naphthalen-5-yl)-5-ethynyinaphthalen-2-ol] | 228 nM | 
11 | 48.7 nM | 6.32 nM | 6.45 nM |  | 24 nM |  |  |  |  | Cc1cc(N)c(F)c(-c2nc3c4c(nc(OC[C@@H]5CC[C@H]6COCCN65)nc4c2F)N([C@H](C)c2cccnc2N)CCO3)c1C(F)(F)F [Example 22, 3-((1R)-1-(5-(3-amino-2-fluoro-5-methyl-6-(trifluoromethyl)phenyl)-4-fluoro-2-(((6S,8aS)-hexahydro-1H-pyrrolo[2,1-c][1,4]oxazin-6-yl)methoxy)-8,9-dihydro-10H-7-oxa-1,3,6,10-tetraazacyclohepta[de]naphthalen-10-yl)ethyl)pyridin-2-amine] | 67 nM | 
12 | 5170 nM | 466 nM | 1020 nM |  | 700 nM |  |  |  |  | C[C@H](c1cccnc1N)N1CCOc2nc(-c3cccc4sc(N)nc34)c(F)c3nc(OC[C@@]45CCCN4C[C@H](F)C5)nc1c23 [Example 24, 4-(10-((R)-1-(2-aminopyridin-3-yl)ethyl)-4-fluoro-2-(((2R,7aS)-2-fluorotetrahydro-1H-pyrrolizin-7a(5H)-yl)methoxy)-9,10-dihydro-8H-7-oxa-1,3,6,10-tetraazacyclohepta[de]naphthalen-5-yl)benzo[d]thiazol-2-amine] | 2000 nM | 
13 | 83.1 nM | 27.6 nM | 8.81 nM |  | 110 nM |  |  |  |  | C[C@H](c1cccnc1N)N1CCOc2nc(-c3cc(O)cc4cccc(F)c34)c(F)c3nc(OC[C@@]45CCCN4C[C@H](F)C5)nc1c23 [Example 25, 4-(10-((R)-1-(2-aminopyridin-3-yl)ethyl)-4-fluoro-2-(((2R,7aS)-2-fluorotetrahydro-1H-pyrrolizin-7a(5H)-yl)methoxy)-9,10-dihydro-8H-7-oxa-1,3,6,10-tetraazacyclohepta[de]naphthalen-5-yl)-5-fluoronaphthalen-2-ol] | 250 nM | 
14 | 4300 nM | 2.29 nM | 3.3 nM |  | 50 nM |  |  |  |  | C[C@H](c1cccnc1N)N1CCOc2nc(-c3cc(N)c(F)c(F)c3C(F)(F)F)c(F)c3nc(OC[C@@]45CCCN4C[C@H](F)C5)nc1c23 [Example 623, 3-((R)-1-(5-(5-amino-3,4-difluoro-2-(trifluoromethyl)phenyl)-4-fluoro-2-(((2R,7aS)-2-fluorotetrahydro-1H-pyrrolizin-7a(5H)-yl)methoxy)-8,9-dihydro-10H-7-oxa-1,3,6,10-tetraazacyclohepta[de]naphthalen-10-yl)ethyl)pyridin-2-amine] | 14.1 nM | 
